Experimental data published in paper PMC9923724, “Half sandwich-type osmium, ruthenium, iridium and rhodium complexes with bidentate glycosyl heterocyclic ligands induce cytostasis in platinum-resistant ovarian cancer cells and bacteriostasis in Gram-positive multiresistant bacteria” (Frontiers in Chemistry, 2023).

Columns and labels:
[1] = test system: Staphylococcus aureus (ATCC29213); experiment: Broth microdilution MIC, Staphylococcus aureus reference strain; assay type: cell-based; details: Staphylococcus aureus ATCC29213, 24 h
Experimental: (§1) The MIC values of the complexes were determined against the reference strains of S. aureus (ATCC29213) and E. faecalis. (ATCC29212) and against clinical VRE and MRSA isolates by microdilution assays (repeated at least twice in duplicates) as described in Materials and Methods. The numbers indicate how many isolates were susceptible to the compound out of those tested; i.e., 1/6 stands for 1 isolate was susceptible out of 6 tested. […] Cells were harvested and lysed. Cellular proteins was separated on a 10% SDS-PAGE gel and were blotted. Blots were probed with 4HNE antibody (top blot), the lower blot was stained with amido black. Arrows point at band of interest. Experiments were repeated three times and a representative blot is shown. On the blots brightness and contrast were adjusted. […] Each was matched to a substance and strain by its position over the x-axis categories. / Ir-7: ND and 0/3 (left plot) and ND and 0/6 (right plot) were matched to E. faecalis/VRE and S. aureus/MRSA by position only.
(§2) We used the reference strains of Staphylococcus aureus (ATCC29213), and Enterococcus faecalis (ATCC29212) that were purchased from ATCC (Manassas, VA, United States).
(§3) Microdilution experiments were performed according to the standards of EUCAST ([EUCAST, 2021]). […] The inoculated plates were incubated for 24 h at 37°C then were assessed visually. […] All experiments were performed at least twice in duplicates.

[2] = test system: Enterococcus faecalis (ATCC29212); experiment: Broth microdilution MIC, Enterococcus faecalis reference strain; assay type: cell-based; details: Enterococcus faecalis ATCC29212, 24 h
Experimental: as §1, §2, §3

[3] = test system: 4HNE expression in Enterococcus faecalis reference strain; experiment: Western blot for 4HNE in Enterococcus faecalis reference strain; assay type: cell-based; details: at MIC (Ru-7 5 μM, Os-7 10 µM), 15 min, 30 min, 1 h; band ∼120 kDa
Experimental: (§4) The MIC values of the complexes were determined against the reference strains of S. aureus (ATCC29213) and E. faecalis. (ATCC29212) and against clinical VRE and MRSA isolates by microdilution assays (repeated at least twice in duplicates) as described in Materials and Methods. The numbers indicate how many isolates were susceptible to the compound out of those tested; i.e., 1/6 stands for 1 isolate was susceptible out of 6 tested. […] Cells were harvested and lysed. Cellular proteins was separated on a 10% SDS-PAGE gel and were blotted. Blots were probed with 4HNE antibody (top blot), the lower blot was stained with amido black. Arrows point at band of interest. Experiments were repeated three times and a representative blot is shown. On the blots brightness and contrast were adjusted. […]
(§5) SDS-polyacrylamide gel electrophoresis and Western blot was performed as in ([Márton et al., 2018]) using an antibody against 4HNE (Abcam (ab46545) 1:1000) that was detected using a corresponding peroxidase-conjugated secondary antibody (1:10000, Cell Signaling Technology, Inc., Beverly, MA, United States). […] ECL and amido black pictures were captured using the ChemiDoc Touch Imaging System (Bio-Rad Laboratories, Inc., Hercules, California, United States) and the pictures were evaluated using the Image Lab software (Bio-Rad).

[4] = Determination of the distribution coefficients (logD); assay type: physicochemical; details: distribution coefficient
[5] = test system: 4HNE formation in Staphylococcus aureus reference strain; experiment: Western blot for 4HNE in Staphylococcus aureus reference strain; assay type: cell-based; details: at MIC (Ru-7 10 μM, Os-7 20 µM), 15 min, 30 min, 1 h; band ∼50 kDa
Experimental: as §4, §5

| Compound | MIC, Reference S. aureus [1] | MIC, Reference E. faecalis [2] | 4HNE expression in Enterococcus faecalis reference strain [3] | LogD [4] | 4HNE formation in Staphylococcus aureus reference strain [5] |
| --- | --- | --- | --- | --- | --- |
| Cc1ccc(C(C)C)cc1.F[P-](F)(F)(F)(F)F.O=C(OCC1OC(n2cc(-c3ccc4ccccc4n3)nn2)C(OC(=O)c2ccccc2)C(OC(=O)c2ccccc2)C1OC(=O)c1ccccc1)c1ccccc1.[Cl][Os+] (mixture of isomers) [Os-7] | 20 µM | 10 µM | induced 4HNE expression | 2.33 | induced 4HNE formation |
| Cc1ccc(C(C)C)cc1.F[P-](F)(F)(F)(F)F.O=C(OCC1OC(n2cc(-c3ccc4ccccc4n3)nn2)C(OC(=O)c2ccccc2)C(OC(=O)c2ccccc2)C1OC(=O)c1ccccc1)c1ccccc1.[Cl][Ru+] (mixture of isomers) [Ru-7] | 10 µM | 5 µM | induced 4HNE expression |  | induced 4HNE formation |
